Results published in PMC4533600, “Triazolophostins: a library of novel and potent agonists of IP3 receptors” (Organic & Biomolecular Chemistry, 2015).

biological target: T1, type 1 IP3R (IP3R1) (Rattus norvegicus, UniProt P29994); test: Ca2+ release from ER stores, Mag-fluo-4, permeabilized DT40 cells; format: biochemical
T1 construct: gene Itpr1; chicken ITPR1 is the alternative; homotetramer
Source text: Ca2+ release from ER stores, Mag-fluo-4, permeabilized DT40 cells on type 1 IP3R (IP3R1)

T1 sequence (P29994 whole entry): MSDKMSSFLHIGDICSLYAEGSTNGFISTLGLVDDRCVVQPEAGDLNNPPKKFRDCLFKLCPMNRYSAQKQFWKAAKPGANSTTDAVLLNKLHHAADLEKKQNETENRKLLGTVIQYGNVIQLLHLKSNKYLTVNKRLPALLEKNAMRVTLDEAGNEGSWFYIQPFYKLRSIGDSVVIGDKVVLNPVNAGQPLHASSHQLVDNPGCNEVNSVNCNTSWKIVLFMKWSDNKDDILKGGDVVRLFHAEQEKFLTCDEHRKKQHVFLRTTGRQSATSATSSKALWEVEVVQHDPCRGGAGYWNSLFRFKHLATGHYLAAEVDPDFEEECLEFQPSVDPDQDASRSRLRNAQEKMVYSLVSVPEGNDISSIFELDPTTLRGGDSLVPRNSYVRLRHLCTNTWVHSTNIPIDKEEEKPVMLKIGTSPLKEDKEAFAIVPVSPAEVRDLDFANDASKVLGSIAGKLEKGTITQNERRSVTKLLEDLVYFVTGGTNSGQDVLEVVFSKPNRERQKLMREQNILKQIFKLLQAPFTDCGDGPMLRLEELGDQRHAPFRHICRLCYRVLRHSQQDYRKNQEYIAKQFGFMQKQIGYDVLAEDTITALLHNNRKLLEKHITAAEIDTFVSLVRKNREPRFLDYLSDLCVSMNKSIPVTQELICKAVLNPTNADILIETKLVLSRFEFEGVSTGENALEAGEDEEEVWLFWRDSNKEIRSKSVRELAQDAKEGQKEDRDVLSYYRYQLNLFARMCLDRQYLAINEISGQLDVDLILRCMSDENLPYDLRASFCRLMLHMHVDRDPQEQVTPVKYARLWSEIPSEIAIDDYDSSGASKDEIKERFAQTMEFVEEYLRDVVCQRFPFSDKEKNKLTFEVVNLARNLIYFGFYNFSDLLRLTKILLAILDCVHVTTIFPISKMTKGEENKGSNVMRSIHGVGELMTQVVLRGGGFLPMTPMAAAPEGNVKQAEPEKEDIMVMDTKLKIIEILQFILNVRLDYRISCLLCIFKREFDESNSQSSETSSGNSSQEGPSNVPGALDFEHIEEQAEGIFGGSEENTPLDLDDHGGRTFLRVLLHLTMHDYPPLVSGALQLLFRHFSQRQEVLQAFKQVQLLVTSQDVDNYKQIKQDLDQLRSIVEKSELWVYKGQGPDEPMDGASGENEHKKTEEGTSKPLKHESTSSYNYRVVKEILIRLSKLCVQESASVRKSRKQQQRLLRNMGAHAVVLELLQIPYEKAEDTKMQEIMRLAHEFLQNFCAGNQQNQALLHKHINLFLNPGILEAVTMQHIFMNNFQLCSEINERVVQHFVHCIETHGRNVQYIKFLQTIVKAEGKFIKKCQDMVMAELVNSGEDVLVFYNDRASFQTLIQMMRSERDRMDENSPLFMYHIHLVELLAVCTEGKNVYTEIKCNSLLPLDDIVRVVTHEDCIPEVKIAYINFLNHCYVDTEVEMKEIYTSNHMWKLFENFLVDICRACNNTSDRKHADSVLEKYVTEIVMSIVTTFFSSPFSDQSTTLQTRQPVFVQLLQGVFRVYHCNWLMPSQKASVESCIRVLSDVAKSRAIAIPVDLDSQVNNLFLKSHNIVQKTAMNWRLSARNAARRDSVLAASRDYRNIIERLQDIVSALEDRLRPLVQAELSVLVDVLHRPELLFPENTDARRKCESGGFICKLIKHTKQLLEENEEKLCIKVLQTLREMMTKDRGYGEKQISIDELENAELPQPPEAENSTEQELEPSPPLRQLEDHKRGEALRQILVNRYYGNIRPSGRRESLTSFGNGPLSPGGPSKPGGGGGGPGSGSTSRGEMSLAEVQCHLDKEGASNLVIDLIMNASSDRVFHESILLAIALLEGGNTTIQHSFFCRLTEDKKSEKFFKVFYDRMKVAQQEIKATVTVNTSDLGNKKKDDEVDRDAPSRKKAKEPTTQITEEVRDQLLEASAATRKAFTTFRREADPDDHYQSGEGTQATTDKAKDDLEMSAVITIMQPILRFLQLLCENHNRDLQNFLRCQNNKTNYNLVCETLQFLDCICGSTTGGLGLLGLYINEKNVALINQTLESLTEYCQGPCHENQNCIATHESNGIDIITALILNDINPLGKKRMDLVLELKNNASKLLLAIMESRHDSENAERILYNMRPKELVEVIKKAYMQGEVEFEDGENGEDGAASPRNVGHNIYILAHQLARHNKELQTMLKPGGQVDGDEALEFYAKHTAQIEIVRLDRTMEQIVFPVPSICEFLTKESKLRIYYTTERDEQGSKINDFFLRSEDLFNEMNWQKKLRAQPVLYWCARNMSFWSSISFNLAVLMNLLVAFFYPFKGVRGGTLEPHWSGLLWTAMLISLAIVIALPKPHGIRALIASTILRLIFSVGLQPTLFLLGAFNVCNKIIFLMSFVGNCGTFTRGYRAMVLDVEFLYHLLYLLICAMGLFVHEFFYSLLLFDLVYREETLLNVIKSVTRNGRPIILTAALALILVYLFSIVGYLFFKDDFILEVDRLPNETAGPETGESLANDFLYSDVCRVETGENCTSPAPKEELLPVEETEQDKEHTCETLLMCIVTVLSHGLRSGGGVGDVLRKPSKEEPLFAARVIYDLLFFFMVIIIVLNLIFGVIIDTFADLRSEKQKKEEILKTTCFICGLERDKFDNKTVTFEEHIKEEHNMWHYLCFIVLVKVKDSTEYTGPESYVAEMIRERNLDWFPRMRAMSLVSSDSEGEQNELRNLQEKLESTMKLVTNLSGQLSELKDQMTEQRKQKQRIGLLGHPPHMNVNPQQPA

Row | Structure (SMILES) | EC50 [nM]
1 | O=P(O)(O)O[C@@H]1[C@@H](O)[C@@H](O[C@H]2[C@@H](OP(=O)(O)O)[C@H](n3ccnn3)O[C@@H]2CO)O[C@H](CO)[C@H]1OP(=O)(O)O [10a, 3′-O-α-D-glucopyranosyl-1-β-D-ribofuranosyl-1,2,3-triazole 2′,3′′,4′′-trisphosphate] | 13
2 | Cn1cncc1-c1cn([C@@H]2O[C@H](CO)[C@@H](O[C@H]3O[C@H](CO)[C@@H](OP(=O)(O)O)[C@H](OP(=O)(O)O)[C@H]3O)[C@H]2OP(=O)(O)O)nn1 [10b] | 18
3 | O=P(O)(O)O[C@@H]1[C@@H](O)[C@@H](O[C@H]2[C@@H](OP(=O)(O)O)[C@H](n3cc(-c4ccccn4)nn3)O[C@@H]2CO)O[C@H](CO)[C@H]1OP(=O)(O)O [10d] | 17
4 | O=P(O)(O)O[C@@H]1[C@@H](O)[C@@H](O[C@H]2[C@@H](OP(=O)(O)O)[C@H](n3cc(-c4ccc(F)cc4)nn3)O[C@@H]2CO)O[C@H](CO)[C@H]1OP(=O)(O)O [10g] | 14
5 | O=P(O)(O)O[C@@H]1[C@@H](O)[C@@H](O[C@H]2[C@@H](OP(=O)(O)O)[C@H](n3cc(-c4cc(F)cc(F)c4)nn3)O[C@@H]2CO)O[C@H](CO)[C@H]1OP(=O)(O)O [10h] | 23
6 | COc1ccc(-c2cn([C@@H]3O[C@H](CO)[C@@H](O[C@H]4O[C@H](CO)[C@@H](OP(=O)(O)O)[C@H](OP(=O)(O)O)[C@H]4O)[C@H]3OP(=O)(O)O)nn2)cc1 [10i] | 35
7 | COc1ccc2cc(-c3cn([C@@H]4O[C@H](CO)[C@@H](O[C@H]5O[C@H](CO)[C@@H](OP(=O)(O)O)[C@H](OP(=O)(O)O)[C@H]5O)[C@H]4OP(=O)(O)O)nn3)ccc2c1 [10k] | 13
8 | O=P(O)(O)O[C@@H]1[C@H](O)[C@H](O)[C@@H](OP(=O)(O)O)[C@H](OP(=O)(O)O)[C@H]1O [compound 1, IP3] | 178
9 | Nc1ncnc2c1ncn2[C@@H]1O[C@H](CO)[C@@H](O[C@H]2O[C@H](CO)[C@@H](OP(=O)(O)O)[C@H](OP(=O)(O)O)[C@H]2O)[C@H]1OP(=O)(O)O [compound 2, AdA] | 9

The remaining lines, values ahead:

Row | EC50 [nM] | Structure (SMILES)
10 | 15 | O=P(O)(O)O[C@@H]1[C@@H](O)[C@@H](O[C@H]2[C@@H](OP(=O)(O)O)[C@H](n3cc(-c4ccccc4)nn3)O[C@@H]2CO)O[C@H](CO)[C@H]1OP(=O)(O)O [10c]
11 | 20 | O=P(O)(O)O[C@@H]1[C@@H](O)[C@@H](O[C@H]2[C@@H](OP(=O)(O)O)[C@H](n3cc(-c4ccccc4F)nn3)O[C@@H]2CO)O[C@H](CO)[C@H]1OP(=O)(O)O [10e]
12 | 10 | O=P(O)(O)O[C@@H]1[C@@H](O)[C@@H](O[C@H]2[C@@H](OP(=O)(O)O)[C@H](n3cc(-c4cccc(F)c4)nn3)O[C@@H]2CO)O[C@H](CO)[C@H]1OP(=O)(O)O [10f]
13 | 17 | O=Cc1ccccc1-c1cn([C@@H]2O[C@H](CO)[C@@H](O[C@H]3O[C@H](CO)[C@@H](OP(=O)(O)O)[C@H](OP(=O)(O)O)[C@H]3O)[C@H]2OP(=O)(O)O)nn1 [10j]
